Consider 5 compounds from ChEMBL document CHEMBL1128410 (J Med Chem, 1995).

SMILES strings stand for the structures. pKd: −log10 of the molar value.

For this assay, the target named is Carbonic anhydrase 2 (Homo sapiens, UniProt P00918).
Description: Compound was tested for the binding affinity towards Carbonic anhydrase II by competitive fluorescence assay with dansylamide
By pKd is commonly meant the negative decadic logarithm of the Kd, by convention in mol/L. Lower therefore signals a large Kd. `NC(CO)C(=O)[C@@H](N)C(=O)NCCOCCOCCNC(=O)c1ccc(S(N)(=O)=O)cc1` (stereo not given in full) gave a pKd of 7.39. On to `NCC(=O)[C@@H](N)C(=O)NCCOCCOCCNC(=O)c1ccc(S(N)(=O)=O)cc1`, for which the pKd is 7.72. On to `NC(CCC(=O)O)C(=O)[C@@H](N)C(=O)NCCOCCOCCNC(=O)c1ccc(S(N)(=O)=O)cc1` (stereo not given in full), for which the pKd is 7.00. The same measure for `CC(C)CC(N)C(=O)[C@@H](N)C(=O)NCCOCCOCCNC(=O)c1ccc(S(N)(=O)=O)cc1` (stereo not given in full): 7.80; for `NCCCCC(N)C(=O)[C@@H](N)C(=O)NCCOCCOCCNC(=O)c1ccc(S(N)(=O)=O)cc1` (stereo not given in full): 7.30.
